Results published in PubChem BioAssay (NCI).
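All cell lines were grown in 96-well plates and treated with compound for 48 hours. TGI: total growth inhibition.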

Key:
Experiment in all cases: NCI anticancer screen, dose series, 48 h
SK-MEL-2 melanoma = tested on: SK-MEL-2 melanoma
HOP-62 NSCLC = tested on: HOP-62 NSCLC
A549 NSCLC = tested on: A549 NSCLC
SK-MEL-28 melanoma = tested on: SK-MEL-28 melanoma
COLO 205 colon = tested on: COLO 205 colon
KM12 colon = tested on: KM12 colon
OVCAR-8 ovarian = tested on: OVCAR-8 ovarian
DU-145 prostate = tested on: DU-145 prostate
M14 melanoma = tested on: M14 melanoma
UACC-62 melanoma = tested on: UACC-62 melanoma
SF-539 CNS = tested on: SF-539 CNS
SNB-75 CNS = tested on: SNB-75 CNS
ACHN renal = tested on: ACHN renal
UACC-257 melanoma = tested on: UACC-257 melanoma
PC-3 prostate = tested on: PC-3 prostate
HCT-116 colon = tested on: HCT-116 colon
TK-10 renal = tested on: TK-10 renal
OVCAR-3 ovarian = tested on: OVCAR-3 ovarian
BT-549 breast = tested on: BT-549 breast
SK-MEL-5 melanoma = tested on: SK-MEL-5 melanoma
SF-268 CNS = tested on: SF-268 CNS
RPMI-8226 leukemia = tested on: RPMI-8226 leukemia
SF-295 CNS = tested on: SF-295 CNS
SK-OV-3 ovarian = tested on: SK-OV-3 ovarian
HS 578T breast = tested on: HS 578T breast
MALME-3M melanoma = tested on: MALME-3M melanoma
SN12C renal = tested on: SN12C renal
SW-620 colon = tested on: SW-620 colon
NCI-H522 lung = tested on: NCI-H522 lung
HCT-15 colon = tested on: HCT-15 colon
MDA-N = tested on: MDA-N
MDA-MB-435 = tested on: MDA-MB-435
OVCAR-4 ovarian = tested on: OVCAR-4 ovarian
MOLT-4 leukemia = tested on: MOLT-4 leukemia
NCI-H23 lung = tested on: NCI-H23 lung
T-47D breast = tested on: T-47D breast
OVCAR-5 ovarian = tested on: OVCAR-5 ovarian
CAKI-1 renal = tested on: CAKI-1 renal
NCI/ADR-RES ovarian = tested on: NCI/ADR-RES ovarian
SNB-19 CNS = tested on: SNB-19 CNS
SR leukemia = tested on: SR leukemia
EKVX NSCLC = tested on: EKVX NSCLC
HOP-92 NSCLC = tested on: HOP-92 NSCLC
MCF7 breast = tested on: MCF7 breast
RXF 393 renal = tested on: RXF 393 renal
786-0 renal = tested on: 786-0 renal
MDA-MB-231 breast = tested on: MDA-MB-231 breast
NCI-H226 lung = tested on: NCI-H226 lung
K-562 leukemia = tested on: K-562 leukemia
HT29 colon = tested on: HT29 colon
LOX IMVI melanoma = tested on: LOX IMVI melanoma
NCI-H460 lung = tested on: NCI-H460 lung
IGROV1 ovarian = tested on: IGROV1 ovarian
U251 CNS = tested on: U251 CNS
A498 renal = tested on: A498 renal
UO-31 renal = tested on: UO-31 renal
HCC-2998 colon = tested on: HCC-2998 colon
CCRF-CEM leukemia = tested on: CCRF-CEM leukemia

Compound: O=C(O)CCC(C(=O)O)N1C(=O)C2C3CCC(C3)C2C1=O (stereo not given)
- TGI (SK-MEL-2 melanoma): > 100 µM
- TGI (HOP-62 NSCLC): > 100 µM
- TGI (A549 NSCLC): > 100 µM
- TGI (SK-MEL-28 melanoma): > 100 µM
- TGI (COLO 205 colon): > 100 µM
- TGI (KM12 colon): > 100 µM
- TGI (OVCAR-8 ovarian): > 100 µM
- TGI (DU-145 prostate): > 100 µM
- TGI (M14 melanoma): > 100 µM
- TGI (UACC-62 melanoma): > 100 µM
- TGI (SF-539 CNS): > 100 µM
- TGI (SNB-75 CNS): > 100 µM
- TGI (ACHN renal): > 100 µM
- TGI (UACC-257 melanoma): > 100 µM
- TGI (PC-3 prostate): > 100 µM
- TGI (HCT-116 colon): > 100 µM
- TGI (TK-10 renal): > 100 µM
- TGI (OVCAR-3 ovarian): > 100 µM
- TGI (BT-549 breast): > 100 µM
- TGI (SK-MEL-5 melanoma): > 100 µM
- TGI (SF-268 CNS): > 100 µM
- TGI (RPMI-8226 leukemia): > 100 µM
- TGI (SF-295 CNS): > 100 µM
- TGI (SK-OV-3 ovarian): > 100 µM
- TGI (HS 578T breast): > 100 µM
- TGI (MALME-3M melanoma): > 100 µM
- TGI (SN12C renal): > 100 µM
- TGI (SW-620 colon): > 100 µM
- TGI (NCI-H522 lung): > 100 µM
- TGI (HCT-15 colon): > 100 µM
- TGI (MDA-N): > 100 µM
- TGI (MDA-MB-435): > 100 µM
- TGI (OVCAR-4 ovarian): > 100 µM
- TGI (MOLT-4 leukemia): > 100 µM
- TGI (NCI-H23 lung): > 100 µM
- TGI (T-47D breast): > 100 µM
- TGI (OVCAR-5 ovarian): > 100 µM
- TGI (CAKI-1 renal): > 100 µM
- TGI (NCI/ADR-RES ovarian): > 100 µM
- TGI (SNB-19 CNS): > 100 µM
- TGI (SR leukemia): > 100 µM
- TGI (EKVX NSCLC): > 100 µM
- TGI (HOP-92 NSCLC): > 100 µM
- TGI (MCF7 breast): > 100 µM
- TGI (RXF 393 renal): > 100 µM
- TGI (786-0 renal): > 100 µM
- TGI (MDA-MB-231 breast): > 100 µM
- TGI (NCI-H226 lung): > 100 µM
- TGI (K-562 leukemia): > 100 µM
- TGI (HT29 colon): > 100 µM
- TGI (LOX IMVI melanoma): > 100 µM
- TGI (NCI-H460 lung): > 100 µM
- TGI (IGROV1 ovarian): > 100 µM
- TGI (U251 CNS): > 100 µM
- TGI (A498 renal): > 100 µM

Compound: CCCCc1c2c(c(C)c3c1C(=O)OC3)Oc1ccccc1O2
- TGI (SK-MEL-2 melanoma): > 33.7 µM
- TGI (HOP-62 NSCLC): > 68.3 µM
- TGI (A549 NSCLC): > 43.2 µM
- TGI (SK-MEL-28 melanoma): > 100 µM
- TGI (COLO 205 colon): 7.69 µM
- TGI (KM12 colon): > 100 µM
- TGI (OVCAR-8 ovarian): 35.7 µM
- TGI (DU-145 prostate): > 43.8 µM
- TGI (M14 melanoma): > 100 µM
- TGI (UACC-62 melanoma): > 100 µM
- TGI (SF-539 CNS): 3.67 µM
- TGI (UO-31 renal): > 100 µM
- TGI (SNB-75 CNS): 13.4 µM
- TGI (ACHN renal): > 100 µM
- TGI (UACC-257 melanoma): 96.9 µM
- TGI (PC-3 prostate): > 34.8 µM
- TGI (HCT-116 colon): 27.1 µM
- TGI (TK-10 renal): > 71.3 µM
- TGI (OVCAR-3 ovarian): 1.51 µM
- TGI (BT-549 breast): > 100 µM
- TGI (SK-MEL-5 melanoma): > 26.2 µM
- TGI (SF-268 CNS): > 100 µM
- TGI (RPMI-8226 leukemia): > 24.5 µM
- TGI (SF-295 CNS): > 51.4 µM
- TGI (SK-OV-3 ovarian): > 100 µM
- TGI (HS 578T breast): 5.8 µM
- TGI (MALME-3M melanoma): > 100 µM
- TGI (SN12C renal): 38.3 µM
- TGI (HCC-2998 colon): 3.22 µM
- TGI (SW-620 colon): > 42 µM
- TGI (NCI-H522 lung): 1.15 µM
- TGI (HCT-15 colon): > 100 µM
- TGI (MDA-N): 0.456 µM
- TGI (MDA-MB-435): 1.59 µM
- TGI (OVCAR-4 ovarian): > 95.6 µM
- TGI (MOLT-4 leukemia): > 100 µM
- TGI (NCI-H23 lung): > 100 µM
- TGI (T-47D breast): > 100 µM
- TGI (OVCAR-5 ovarian): > 100 µM
- TGI (CAKI-1 renal): > 100 µM
- TGI (NCI/ADR-RES ovarian): 20.5 µM
- TGI (SNB-19 CNS): > 75 µM
- TGI (SR leukemia): > 40.1 µM
- TGI (EKVX NSCLC): > 100 µM
- TGI (HOP-92 NSCLC): > 100 µM
- TGI (MCF7 breast): > 100 µM
- TGI (RXF 393 renal): 7.98 µM
- TGI (786-0 renal): > 36.9 µM
- TGI (MDA-MB-231 breast): > 55.6 µM
- TGI (NCI-H226 lung): > 81.1 µM
- TGI (K-562 leukemia): 22.4 µM
- TGI (HT29 colon): > 40.9 µM
- TGI (LOX IMVI melanoma): > 100 µM
- TGI (NCI-H460 lung): 18.2 µM
- TGI (IGROV1 ovarian): > 100 µM
- TGI (U251 CNS): 14.9 µM
- TGI (CCRF-CEM leukemia): > 100 µM
- TGI (A498 renal): > 46.5 µM

Compound: COc1ccc(C(=O)/C=C/c2ccc(OCC(=N)N)cc2)cc1
- TGI (HOP-62 NSCLC): 29.9 µM
- TGI (A549 NSCLC): 33.1 µM
- TGI (SK-MEL-28 melanoma): 28.6 µM
- TGI (COLO 205 colon): 28.6 µM
- TGI (KM12 colon): 25.8 µM
- TGI (OVCAR-8 ovarian): 37.3 µM
- TGI (DU-145 prostate): 25.4 µM
- TGI (M14 melanoma): 32.6 µM
- TGI (UACC-62 melanoma): 29 µM
- TGI (SF-539 CNS): 29.6 µM
- TGI (UO-31 renal): 34.1 µM
- TGI (SNB-75 CNS): 20.3 µM
- TGI (ACHN renal): 31.9 µM
- TGI (UACC-257 melanoma): 38.1 µM
- TGI (PC-3 prostate): 27.9 µM
- TGI (HCT-116 colon): 16.7 µM
- TGI (TK-10 renal): 38.9 µM
- TGI (OVCAR-3 ovarian): 27.5 µM
- TGI (BT-549 breast): 31.7 µM
- TGI (SK-MEL-5 melanoma): 33.1 µM
- TGI (SF-268 CNS): 35.6 µM
- TGI (SF-295 CNS): 30 µM
- TGI (SK-OV-3 ovarian): 25.5 µM
- TGI (HS 578T breast): 34.9 µM
- TGI (MALME-3M melanoma): 32 µM
- TGI (SN12C renal): 26.7 µM
- TGI (HCC-2998 colon): 30.4 µM
- TGI (SW-620 colon): 14.7 µM
- TGI (HCT-15 colon): 31.7 µM
- TGI (MDA-N): 31.4 µM
- TGI (MDA-MB-435): 36.8 µM
- TGI (OVCAR-4 ovarian): 30.5 µM
- TGI (MOLT-4 leukemia): 30.9 µM
- TGI (NCI-H23 lung): 43.3 µM
- TGI (T-47D breast): 26.5 µM
- TGI (OVCAR-5 ovarian): 83.9 µM
- TGI (NCI/ADR-RES ovarian): 72 µM
- TGI (SNB-19 CNS): 29.2 µM
- TGI (SR leukemia): 25.9 µM
- TGI (EKVX NSCLC): 30.8 µM
- TGI (HOP-92 NSCLC): 28.5 µM
- TGI (MCF7 breast): 26.8 µM
- TGI (RXF 393 renal): 28.3 µM
- TGI (786-0 renal): 29.9 µM
- TGI (MDA-MB-231 breast): 27.8 µM
- TGI (NCI-H226 lung): 34.1 µM
- TGI (K-562 leukemia): 20.1 µM
- TGI (HT29 colon): 28.8 µM
- TGI (IGROV1 ovarian): 40.8 µM
- TGI (U251 CNS): 27.7 µM
- TGI (CCRF-CEM leukemia): 25.7 µM
- TGI (A498 renal): 27.9 µM
